Results taken from ChEMBL document CHEMBL3870343, “Synthesis, screening and docking analysis of hispolon analogs as potential antitubercular agents” (2017).
Converted amounts (≈) assume the structure as drawn.

Key:
Type in all cases: functional
[1] = test system: Mycobacterium tuberculosis; test: Antitubercular activity against Mycobacterium tuberculosis H37Rv ATCC 27294 after 5 days by micro plate alamar blue assay; settings: H37Rv ATCC 27294, 120 h
[2] = test system: Mycobacterium tuberculosis; test: Antitubercular activity against Mycobacterium tuberculosis H37Rv ATCC 27294 assessed as ratio of compound or ciprofloxacin MIC to MIC for compound in presence of ciprofloxacin after 5 days by micro plate alamar blue assay
[3] = test system: Mycobacterium tuberculosis; test: Antitubercular activity against Mycobacterium tuberculosis H37Rv ATCC 27294 assessed as ratio of compound or rifampicin MIC to MIC for compound in presence of rifampicin after 5 days by micro plate alamar blue assay
[4] = test system: Mycobacterium tuberculosis; test: Antitubercular activity against Mycobacterium tuberculosis H37Rv ATCC 27294 assessed as ratio of compound or streptomycin MIC to MIC for compound in presence of streptomycin after 5 days by micro plate alamar blue assay
[5] = test system: Mycobacterium tuberculosis; test: Antitubercular activity against Mycobacterium tuberculosis H37Rv ATCC 27294 assessed as ratio of compound or pyrazinamide MIC to MIC for compound in presence of pyrazinamide after 5 days by micro plate alamar blue assay

| Structure (SMILES) | MIC [1] [µg/mL] | further results |
| --- | --- | --- |
| CC(=O)CC(=O)/C=C/c1ccc(O)c(O)c1 | 25 (≈ 114 µM) | – |
| COc1cc(CCC(=O)CC(C)=O)ccc1O | 6.25 (≈ 26.5 µM) | – |
| COc1cc(/C=C/C(=O)CC(C)=O)ccc1O | 25 (≈ 107 µM) | – |
| CC(=O)CC(=O)/C=C/c1ccc(O)cc1 | 25 (≈ 122 µM) | Ratio [2]: 0.062; Ratio [3]: 0.062; Ratio [4]: 0.125; Ratio [5]: 0.25 |
| COc1ccc(/C=C/C(=O)CC(C)=O)cc1OC | 100 (≈ 403 µM) | – |
| COc1ccc(/C=C/C(=O)CC(C)=O)cc1 | 50 (≈ 229 µM) | – |
| CC(=O)CC(=O)CCc1ccc(O)cc1 | 1.6 (≈ 7.76 µM) | Ratio [2]: 0.031; Ratio [3]: 0.062; Ratio [4]: 0.25; Ratio [5]: 0.25 |
| COc1ccc(CCC(=O)CC(C)=O)cc1 | 25 (≈ 113 µM) | – |
| COc1ccc(CCC(=O)CC(C)=O)cc1OC | 100 (≈ 400 µM) | – |
| COc1ccc(CCC(=O)CC(C)=O)c(OC)c1OC | > 100 | – |
| COc1ccc(/C=C/C(=O)CC(C)=O)c(OC)c1OC | 100 (≈ 359 µM) | – |
| CC(=O)CC(=O)CCc1ccc(O)c(O)c1 | 3.12 (≈ 14.1 µM) | – |
| COc1cc(/C=C/C(=O)CC(C)=O)ccc1OC(C)=O | > 100 | – |
| COc1cc(/C=C/C(=O)CC(C)=O)cc(OC)c1OC | 50 (≈ 180 µM) | – |
| COc1cc(/C=C/C(=O)CC(C)=O)cc(OC)c1OC(C)=O | > 100 | – |
| COc1cc(CCC(=O)CC(C)=O)cc(OC)c1O | 12.5 (≈ 46.9 µM) | – |
| CC(=O)CC(=O)/C=C/c1ccc(OC(C)=O)cc1 | 100 (≈ 406 µM) | – |
| COc1cc(/C=C/C(=O)CC(C)=O)cc(OC)c1O | 50 (≈ 189 µM) | – |
| COc1cc(CCC(=O)CC(C)=O)cc(OC)c1OC(C)=O | 100 (≈ 324 µM) | – |
| COc1cc(OC)c(/C=C/C(=O)CC(C)=O)c(OC)c1 | 100 (≈ 359 µM) | – |
| O=C(O)c1cn(C2CC2)c2cc(N3CCNCC3)c(F)cc2c1=O [CIPROFLOXACIN] | 3.12 (≈ 9.43 µM) | – |
| COc1cc(/C=C/C(=O)CC(=O)/C=C/c2ccc(O)c(OC)c2)ccc1O [CURCUMIN] | > 100 | – |
| CC[C@@H](CO)NCCN[C@@H](CC)CO [ETHAMBUTOL] | 1.6 (≈ 7.83 µM) | – |
| NNC(=O)c1ccncc1 [ISONIAZID] | 0.8 (≈ 5.83 µM) | – |
| NC(=O)c1cnccn1 [PYRAZINAMIDE] | 3.12 (≈ 25.4 µM) | – |
| CO[C@H]1/C=C/O[C@@]2(C)Oc3c(C)c(O)c4c(O)c(c(/C=N/N5CCN(C)CC5)c(O)c4c3C2=O)NC(=O)/C(C)=C\C=C\[C@H](C)[C@H](O)[C@@H](C)[C@@H](O)[C@@H](C)[C@H](OC(C)=O)[C@@H]1C [RIFAMPIN] | 1.6 (≈ 1.94 µM) | – |
| CN[C@@H]1[C@H](O[C@H]2[C@H](O[C@H]3[C@H](O)[C@@H](O)[C@H](N=C(N)N)[C@@H](O)[C@@H]3N=C(N)N)O[C@@H](C)[C@]2(O)C=O)O[C@@H](CO)[C@H](O)[C@H]1O [STREPTOMYCIN] | 6.25 (≈ 10.7 µM) | – |
| C=C/C(C)=C/[C@@]1(C)SC(=O)C(C)=C1O [THIOLACTOMYCIN] | 12.5 (≈ 59.4 µM) | – |
